Measured values published in US20230255970A1, “COMPOSITIONS AND METHODS FOR TREATING PROLIFERATIVE DISEASES” (The Broad Institute, Inc., priority 2020, published 2023).

What was measured:
Format in all cases: cell-based, human
[1] = system: YAP1 overexpression in U2OS cells; assay: Cell Painting morphological profile matching to YAP1/TAZ overexpression signature; conditions: Pearson correlation of Cell Painting signatures, U2OS cells
Excerpt: (§1) Of these, analysis of the 220 constructs that were most closely representative of the annotated full-length transcripts was prioritized. […] Not all genes are likely to impact cellular morphology given the limitation of the experiment; using a single cell line at a single time point under a single set of conditions and stained with six fluorescent labels.
FIG. 2 provides an example characterization of matching the morphological signature of a gene query to the signature(s) of compounds in a library. Connections which show both positive and negative large correlations are considered as matches.
(§2) This standardization was done plate wise, based on the mean and standard deviation of the controls at profile level for the compound dataset. […] The signatures were then obtained by averaging the replicate profiles feature-wise. Pearson correlation was used on the aligned signatures of a gene and compound to score their connection.

[2] = system: TRAF2 overexpression in U2OS cells; assay: Cell Painting morphological profile matching to TRAF2 overexpression; conditions: Pearson correlation of Cell Painting signatures, U2OS cells
Excerpt: as §1, §2

[3] = system: U2OS cells; assay: Cell count in U2OS Cell Painting images; conditions: U2OS Cell Painting
Excerpt: as §1, §2

Compound: CNC[C@@H]1Oc2c(NS(=O)(=O)c3ccc(F)cc3)cccc2C(=O)N([C@H](C)CO)C[C@H]1C [BRD-K00135177, 4-fluoro-N-[(2R,3R)-5-[(2R)-1-hydroxypropan-2-yl]-3-methyl-2-(methylaminomethyl)-6-oxo-3,4-dihydro-2H-1,5-benzoxazocin-10-yl]benzenesulfonamide]
- Corr. to YAP1 cluster [1]: 0.5004
- Corr. to TRAF2 [2]: −0.3649
- Avg. Cell Count z-score [3]: 0.4009

Compound: O=C(Nc1ccc2c(c1)[C@H]1C[C@@H](CC(=O)N3CCCCC3)O[C@@H](CO)[C@H]1O2)C1CCOCC1 [BRD-K62768599, N-[(1S,3S,4aR,9aS)-1-(hydroxymethyl)-3-[2-oxo-2-(1-piperidinyl)ethyl]-3,4,4a,9a-tetrahydro-1H-pyrano[3,4-b]benzofuran-6-yl]-4-oxanecarboxamide]
- Corr. to YAP1 cluster [1]: 0.4883
- Corr. to TRAF2 [2]: −0.5272
- Avg. Cell Count z-score [3]: −0.7392

Compound: O=c1[nH]ccc2c(S(=O)(=O)N3CCCNCC3)cccc12 [BRD-K77793136, 5-(1,4-diazepan-1-ylsulfonyl)-2H-isoquinolin-1-one]
- Corr. to YAP1 cluster [1]: 0.4458
- Corr. to TRAF2 [2]: −0.4667
- Avg. Cell Count z-score [3]: −1.055

Compound: C[C@H]1CN([C@@H](C)CO)C(=O)CCCn2nncc2CO[C@H]1CN(C)C(=O)Nc1cccc(Oc2ccccn2)c1 [BRD-K19969618, 1-[[(8S,9R)-6-[(2S)-1-hydroxypropan-2-yl]-8-methyl-5-oxo-10-oxa-1,6,14,15-tetrazabicyclo[10.3.0]pentadeca-12,14-dien-9-yl]methyl]-1-methyl-3-(3-pyridin-2-yloxyphenyl)urea]
- Corr. to YAP1 cluster [1]: 0.5483
- Corr. to TRAF2 [2]: −0.4667
- Avg. Cell Count z-score [3]: 0.7797

Compound: O=C(C[C@H]1CC[C@@H]2[C@H](COC[C@@H](O)CN2Cc2ccc3c(c2)OCO3)O1)N1CCCCC1 [BRD-K41723088, 2-[(3S,6aR,8R,10aR)-1-(1,3-benzodioxol-5-ylmethyl)-3-hydroxy-3,4,6,6a,8,9,10,10a-octahydro-2H-pyrano[2,3-c][1,5]oxazocin-8-yl]-1-piperidin-1-ylethanone]
- Corr. to YAP1 cluster [1]: 0.4916
- Corr. to TRAF2 [2]: −0.4389
- Avg. Cell Count z-score [3]: −0.07095

Compound: CO[C@@H]1CN(C)C(=O)c2ccc(NC(=O)c3ccccc3F)cc2OC[C@H](C)N(CC2CC2)C[C@@H]1C [BRD-K42367391, N-[(5S,6S,9S)-8-(cyclopropylmethyl)-5-methoxy-3,6,9-trimethyl-2-oxo-11-oxa-3,8-diazabicyclo[10.4.0]hexadeca-1(12),13,15-trien-14-yl]-2-fluorobenzamide]
- Corr. to YAP1 cluster [1]: 0.4887
- Corr. to TRAF2 [2]: −0.2728
- Avg. Cell Count z-score [3]: −0.9374

Compound: Clc1nc(NCc2ccccc2)c2ccccc2n1 [BRD-K11758216, N-benzyl-2-chloroquinazolin-4-amine]
- Corr. to YAP1 cluster [1]: 0.5078
- Corr. to TRAF2 [2]: −0.4406
- Avg. Cell Count z-score [3]: −1.202

Compound: C[C@H](CO)N1C[C@H](C)[C@H](CN(C)C)Oc2cc(C#Cc3ccccn3)ccc2S1(=O)=O [BRD-K13719685, (4S,5R)-5-((dimethylamino)methyl)-2-((R)-1-hydroxypropan-2-yl)-4-methyl-8-(pyridin-2-ylethynyl)-2,3,4,5-tetrahydrobenzo[b][1,4,5]oxathiazocine 1,1-dioxide]
- Corr. to YAP1 cluster [1]: −0.4426
- Corr. to TRAF2 [2]: 0.3591
- Avg. Cell Count z-score [3]: 2.104

Compound: CCCC(=O)Nc1ccc2c(c1)C(=O)N(C)C[C@H](OC)[C@H](C)CN(Cc1ccccc1)[C@@H](C)CO2 [BRD-K22754756, N-[(4S,7R,8R)-8-methoxy-4,7,10-trimethyl-11-oxo-5-(phenylmethyl)-2-oxa-5,10-diazabicyclo[10.4.0]hexadeca-1(12),13,15-trien-14-yl]butanamide]
- Corr. to YAP1 cluster [1]: 0.4966
- Corr. to TRAF2 [2]: −0.297
- Avg. Cell Count z-score [3]: −1.409

Compound: O=C(Nc1ccncc1)Nc1c(Cl)cc(Cl)cc1Cl [BRD-K46678324, 1-pyridin-4-yl-3-(2,4,6-trichlorophenyl)urea]
- Corr. to YAP1 cluster [1]: 0.4284
- Corr. to TRAF2 [2]: −0.3397
- Avg. Cell Count z-score [3]: −0.7252

Compound: COc1ccc(Cc2nccc3cc(OC)c(OC)cc23)cc1OC [BRD-K15567136, 1-[(3,4-dimethoxyphenyl)methyl]-6,7-dimethoxyisoquinoline]
- Corr. to YAP1 cluster [1]: 0.4464
- Corr. to TRAF2 [2]: −0.4936
- Avg. Cell Count z-score [3]: −0.6568

Compound: COC(=O)C[C@H]1C[C@H]2c3cc(NS(=O)(=O)c4cccc(OC)c4)ccc3O[C@H]2[C@@H](CO)O1 [BRD-K68530167, 2-[(1R,3R,4aS,9aR)-1-(hydroxymethyl)-6-[(3-methoxyphenyl)sulfonylamino]-3,4,4a,9a-tetrahydro-1H-pyrano[3,4-b]benzofuran-3-yl]acetic acid methyl ester]
- Corr. to YAP1 cluster [1]: 0.494
- Corr. to TRAF2 [2]: −0.4619
- Avg. Cell Count z-score [3]: −0.1411

Compound: CCCNC(=O)N1[C@@H]2c3ccc(-c4ccccc4OC)c(=O)n3C[C@H]1[C@H](CO)[C@H]2C(=O)NCC [BRD-K39839146, (1S,9R,10R,11R)-11-N-ethyl-10-(hydroxymethyl)-5-(2-methoxyphenyl)-6-oxo-12-N-propyl-7,12-diazatricyclo[7.2.1.02,7]dodeca-2,4-diene-11,12-dicarboxamide]
- Corr. to YAP1 cluster [1]: 0.4835
- Corr. to TRAF2 [2]: −0.4284
- Avg. Cell Count z-score [3]: 0.2185

Compound: CO[C@H]1CN(C)C(=O)c2cc(NC(=O)C3CCCCC3)ccc2OC[C@@H](C)N(Cc2nccs2)C[C@@H]1C [BRD-K22874335, N-[(4R,7S,8R)-8-methoxy-4,7,10-trimethyl-11-oxo-5-(1,3-thiazol-2-ylmethyl)-2-oxa-5,10-diazabicyclo[10.4.0]hexadeca-1(12),13,15-trien-14-yl]cyclohexanecarboxamide]
- Corr. to YAP1 cluster [1]: 0.4904
- Corr. to TRAF2 [2]: −0.362
- Avg. Cell Count z-score [3]: −1.704

Compound: O=C(C[C@H]1C=C[C@@H](NC(=O)Nc2cc(F)ccc2F)[C@H](CO)O1)NCCCN1CCOCC1 [BRD-K40143134, 2-[(2R,3R,6S)-3-[[(2,5-difluoroanilino)-oxomethyl]amino]-2-(hydroxymethyl)-3,6-dihydro-2H-pyran-6-yl]-N-[3-(4-morpholinyl)propyl]acetamide]
- Corr. to YAP1 cluster [1]: 0.5009
- Corr. to TRAF2 [2]: −0.3428
- Avg. Cell Count z-score [3]: −0.1148

Compound: N#Cc1nn(-c2c(Cl)cc(C(F)(F)F)cc2Cl)c(N)c1[S+]([O-])C(F)(F)F (stereo not drawn) [BRD-A50675702, 5-amino-1-[2,6-dichloro-4-(trifluoromethyl)phenyl]-4-(trifluoromethane)sulfinyl-1H-pyrazole-3-carbonitrile]
- Corr. to YAP1 cluster [1]: 0.5102
- Corr. to TRAF2 [2]: −0.4752
- Avg. Cell Count z-score [3]: −0.1188

Compound: O=C(N[C@H]1CC[C@@H](CCNS(=O)(=O)c2ccc(F)cc2)O[C@H]1CO)C1CCOCC1 [BRD-K48052543, N-[(2R,3S,6S)-6-[2-[(4-fluorophenyl)sulfonylamino]ethyl]-2-(hydroxymethyl)oxan-3-yl]oxane-4-carboxamide]
- Corr. to YAP1 cluster [1]: 0.5099
- Corr. to TRAF2 [2]: −0.4132
- Avg. Cell Count z-score [3]: 0.09801

Compound: C[C@@H]1CN([C@H](C)CO)C(=O)CCCn2cc(nn2)CO[C@@H]1CN(C)S(=O)(=O)c1ccc(Oc2ccccc2)cc1 [BRD-K96698997, N-[[(8R,9S)-6-[(2R)-1-hydroxypropan-2-yl]-8-methyl-5-oxo-10-oxa-1,6,13,14-tetrazabicyclo[10.2.1]pentadeca-12(15),13-dien-9-yl]methyl]-N-methyl-4-phenoxybenzenesulfonamide]
- Corr. to YAP1 cluster [1]: −0.4518
- Corr. to TRAF2 [2]: 0.4834
- Avg. Cell Count z-score [3]: −1.099

Compound: Cc1ccc(S(=O)(=O)NC(=O)NN2CC3CCCC3C2)cc1 (stereo not drawn) [BRD-A61154809, 1-(3,3a,4,5,6,6a-hexahydro-1H-cyclopenta[c]pyrrol-2-yl)-3-(4-methylphenyl)sulfonylurea]
- Corr. to YAP1 cluster [1]: 0.4401
- Corr. to TRAF2 [2]: −0.3313
- Avg. Cell Count z-score [3]: 0.8203

Compound: CCc1nc(N)nc(N)c1-c1ccc(Cl)cc1 [BRD-K88429204, 5-(4-chlorophenyl)-6-ethylpyrimidine-2,4-diamine]
- Corr. to YAP1 cluster [1]: 0.4503
- Corr. to TRAF2 [2]: −0.3496
- Avg. Cell Count z-score [3]: −0.2165

Compound: O=C(NCC1CC1)[C@@H]1N[C@@H]2c3ccc(C4=CCCCC4)c(=O)n3C[C@@H]2[C@H]1CO [BRD-K37451830, (2R,3R,3aS,9bS)-7-(1-cyclohexenyl)-N-(cyclopropylmethyl)-3-(hydroxymethyl)-6-oxo-1,2,3,3a,4,9b-hexahydropyrrolo[2,3-a]indolizine-2-carboxamide]
- Corr. to YAP1 cluster [1]: 0.4802
- Corr. to TRAF2 [2]: −0.4167
- Avg. Cell Count z-score [3]: −0.0043

Compound: O=C(C[C@H]1CC[C@H](NC(=O)CCN2CCCCC2)[C@@H](CO)O1)Nc1nccs1 [BRD-K11266478, N-[(2S,3S,6R)-2-(hydroxymethyl)-6-[2-oxo-2-(1,3-thiazol-2-ylamino)ethyl]oxan-3-yl]-3-piperidin-1-ylpropanamide]
- Corr. to YAP1 cluster [1]: 0.4988
- Corr. to TRAF2 [2]: −0.4398
- Avg. Cell Count z-score [3]: 0.4851

Compound: COc1cccc(S(=O)(=O)N2C[C@H](O)COC[C@@H]3O[C@H](CC(=O)N4CCN(c5ccccc5)CC4)CC[C@H]32)c1 [BRD-K70003473, 2-[(3S,6aR,8S,10aR)-3-hydroxy-1-(3-methoxyphenyl)sulfonyl-3,4,6,6a,8,9,10,10a-octahydro-2H-pyrano[2,3-c][1,5]oxazocin-8-yl]-1-(4-phenyl-1-piperazinyl)ethanone]
- Corr. to YAP1 cluster [1]: −0.4195
- Corr. to TRAF2 [2]: 0.3099
- Avg. Cell Count z-score [3]: 0.5728
